22 compounds from US8507690B2, “Thiazole derivative and use thereof as VAP-1 inhibitor” (R-Tech Ueno, Ltd., priority 2008, dated 2013) can be followed below.

For data set [1], the target named is T1, human VAP-1 enzyme (SSAO) (Homo sapiens, UniProt Q16853).
T1 construct: made in house; cell extract used
T1 sequence (Q16853 1-763): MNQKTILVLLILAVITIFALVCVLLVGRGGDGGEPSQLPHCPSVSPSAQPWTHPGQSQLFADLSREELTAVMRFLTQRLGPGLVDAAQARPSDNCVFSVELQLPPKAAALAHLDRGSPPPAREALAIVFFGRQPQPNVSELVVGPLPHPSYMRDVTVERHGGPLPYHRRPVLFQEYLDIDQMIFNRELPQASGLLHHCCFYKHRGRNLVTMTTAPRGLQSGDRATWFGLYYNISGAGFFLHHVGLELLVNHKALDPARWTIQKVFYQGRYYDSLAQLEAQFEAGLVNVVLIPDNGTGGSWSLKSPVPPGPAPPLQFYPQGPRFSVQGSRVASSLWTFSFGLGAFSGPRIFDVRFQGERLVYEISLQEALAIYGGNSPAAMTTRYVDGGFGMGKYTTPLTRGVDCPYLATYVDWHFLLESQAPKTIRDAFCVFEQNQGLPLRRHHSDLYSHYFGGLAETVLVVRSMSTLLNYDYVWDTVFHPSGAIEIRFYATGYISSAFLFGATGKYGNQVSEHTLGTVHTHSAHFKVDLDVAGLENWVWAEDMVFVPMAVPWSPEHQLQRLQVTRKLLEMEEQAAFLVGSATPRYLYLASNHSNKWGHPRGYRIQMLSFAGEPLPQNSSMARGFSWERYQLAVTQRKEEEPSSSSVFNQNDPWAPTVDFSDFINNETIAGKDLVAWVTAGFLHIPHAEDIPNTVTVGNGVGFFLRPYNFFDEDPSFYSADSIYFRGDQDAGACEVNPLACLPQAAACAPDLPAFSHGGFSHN
As to the kind of experiment: Enzyme activity inhibitory effect on human VAP-1 enzyme (SSAO), radiochemical-enzyme assay with 14C-benzylamine. The data set is classed as biochemical. The note with it: human VAP-1 (SSAO) cell extract, 14C-benzylamine 1×10^−5 mol/l, 37° C. 2 hours. How it is done:
(§1) The compounds of the present invention obtained in Production Examples were examined for the enzyme activity inhibitory effect on human and rat VAP-1 enzyme (SSAO) by the following method.
(§2) The VAP-1 enzyme (SSAO) activity in both human and rat was measured by a radiochemical-enzyme assay using ^14C-benzylamine as an artificial substrate. Human or rat VAP-1 was cloned from the cDNA library and expressed in a cell. The cell extract was preincubated with a test compound solution (final concentration 1×10^−7-1×10^−11 mol/l) at room temperature for 20 minutes. Then, ^14C-benzylamine (final concentration 1×10^−5 mol/l) was added, and the mixture was incubated at a final volume of 200 μl at 37° C. for 2 hours. The enzyme reaction was stopped by addition of 2 mol/l (200 μl) citric acid. The oxidation product was extracted with 1 ml toluene/ethyl acetate (1:1), and the radioactivity thereof was measured by a liquid scintillation counter.

The target in a further data set is T2, rat VAP-1 enzyme (SSAO) (Rattus norvegicus, UniProt O08590).
T2 construct: made in house; cell extract used
T2 sequence (O08590 1-763): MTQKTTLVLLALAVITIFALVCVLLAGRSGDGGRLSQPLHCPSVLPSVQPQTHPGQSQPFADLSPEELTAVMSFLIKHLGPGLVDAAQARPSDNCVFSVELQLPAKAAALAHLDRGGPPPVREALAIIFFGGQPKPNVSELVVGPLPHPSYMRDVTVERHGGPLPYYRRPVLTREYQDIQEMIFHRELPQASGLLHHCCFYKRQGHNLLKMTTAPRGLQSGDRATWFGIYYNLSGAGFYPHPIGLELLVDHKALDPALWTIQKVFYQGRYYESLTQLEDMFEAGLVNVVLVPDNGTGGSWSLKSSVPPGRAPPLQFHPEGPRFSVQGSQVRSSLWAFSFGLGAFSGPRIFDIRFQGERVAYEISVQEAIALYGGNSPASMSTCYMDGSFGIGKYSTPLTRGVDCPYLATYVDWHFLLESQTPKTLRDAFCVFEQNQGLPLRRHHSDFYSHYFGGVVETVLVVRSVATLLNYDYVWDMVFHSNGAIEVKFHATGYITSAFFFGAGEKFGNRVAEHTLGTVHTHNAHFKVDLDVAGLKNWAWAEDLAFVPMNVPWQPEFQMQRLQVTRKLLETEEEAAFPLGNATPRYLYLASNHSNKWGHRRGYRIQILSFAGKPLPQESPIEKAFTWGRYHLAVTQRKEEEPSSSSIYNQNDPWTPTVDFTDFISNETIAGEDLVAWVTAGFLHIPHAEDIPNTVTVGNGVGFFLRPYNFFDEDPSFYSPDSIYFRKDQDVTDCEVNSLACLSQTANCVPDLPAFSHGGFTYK
As to the kind of experiment: Enzyme activity inhibitory effect on rat VAP-1 enzyme (SSAO), radiochemical-enzyme assay with 14C-benzylamine. The data set is classed as biochemical. The note with it: rat VAP-1 (SSAO) cell extract, 14C-benzylamine 1×10^−5 mol/l, 37° C. 2 hours. How it is done:
as §1, §2

Each structure is given as a SMILES string. Counter-ions that a name gives are not always drawn.

Regarding `CC(=O)Nc1nc(CCc2cccc(OC(=O)NN)c2)cs1` (as salt: hydrochloride), the melting point (as a rule, the temperature of the solid-liquid transition) is 158 to 162 °C.

On to `CC(=O)Nc1nc(CCc2ccc(CNC(=O)NN)cc2F)cs1` (as salt: hydrochloride), for which the melting point was 165 to 169 °C.

Turning to `CC(=O)Nc1nc(CCc2csc(CCCNC(=O)NN)c2)cs1` (as salt: hydrochloride), the melting point was in the range of 153 to 156 °C.

Turning to `CC(=O)Nc1nc(CCc2cc(CCCNC(=O)NN)cs2)cs1` (as salt: hydrochloride) [Production Example 32, N-[3-(5-{2-[2-(acetylamino)-1,3-thiazol-4-yl]ethyl}thiophen-3-yl)propyl]hydrazinecarboxamide hydrochloride], the melting point lay within 111 to 115 °C.

Regarding `CC(=O)Nc1nc(CCc2ccc(CSC(=O)NN)s2)cs1` (as salt: hydrochloride) [Production Example 36, S-[(5-{2-[2-(acetylamino)-1,3-thiazol-4-yl]ethyl}thiophen-2-yl)methyl]hydrazinecarbothioate hydrochloride], the melting point was in the range of 147 to 153 °C.

Consider `CC(=O)Nc1nc(CCc2ccc(OC(=O)NN)cc2)cs1.Cl` [Production Example 1, 4-{2-[2-(acetylamino)-1,3-thiazol-4-yl]ethyl}phenyl hydrazinecarboxylate hydrochloride], for which the melting point is 167 to 169 °C. Further, it took 2.5 nM to reach half-maximal inhibition in data set [1] (IC50). Moreover, half-maximal inhibition on rat VAP-1 enzyme (SSAO) (IC50) was put at 0.2 nM.

In turn, `CC(=O)Nc1nc(CCc2ccc(COC(=O)NN)cc2)cs1.Cl` [Production Example 2, 4-{2-[2-(acetylamino)-1,3-thiazol-4-yl]ethyl}benzyl hydrazinecarboxylate hydrochloride] gave a melting point of 162 to 164 °C. Also, inhibition in data set [1] was half-maximal at 0.9 nM (IC50). Moreover, the IC50 – broadly, the concentration that inhibits the measured activity by half – on rat VAP-1 enzyme (SSAO) came to 0.7 nM.

With `CC(=O)Nc1nc(CCc2ccc(CCOC(=O)NN)cc2)cs1.Cl` [Production Example 3, 2-(4-{2-[2-(acetylamino)-1,3-thiazol-4-yl]ethyl}phenyl)ethyl hydrazinecarboxylate hydrochloride], the melting point was 172 to 174 °C. The IC50 in data set [1] came out at 11.7 nM. At rat VAP-1 enzyme (SSAO), this compound showed an IC50 of 2.3 nM.

Consider `CC(=O)Nc1nc(CCc2ccc(COC(=O)NN)c(F)c2)cs1.Cl` [Production Example 4, 4-{2-[2-(acetylamino)-1,3-thiazol-4-yl]ethyl}-2-fluorobenzyl hydrazinecarboxylate hydrochloride], for which the melting point fell in the range of 162 to 165 °C. Besides, in data set [1], half-maximal inhibition (IC50) required 0.8 nM. Further, at rat VAP-1 enzyme (SSAO), the IC50 is 0.4 nM.

Turning to `CC(=O)Nc1nc(CCc2ccc(COC(=O)NN)cc2F)cs1.Cl` [Production Example 5, 4-{2-[2-(acetylamino)-1,3-thiazol-4-yl]ethyl}-3-fluorobenzyl hydrazinecarboxylate hydrochloride], the melting point lay in the range of 204 to 208 °C. Further, half-maximal inhibition in data set [1] (IC50) was put at 1.2 nM. The compound also had an IC50 at rat VAP-1 enzyme (SSAO) of 1.1 nM.

Take `CC(=O)Nc1nc(CCc2ccc(COC(=O)NN)c(F)c2F)cs1` [Production Example 6, 4-{2-[2-(acetylamino)-1,3-thiazol-4-yl]ethyl}-2,3-difluorobenzyl hydrazinecarboxylate hydrochloride]: the half-inhibitory concentration (IC50) in data set [1] is 1.3 nM; against rat VAP-1 enzyme (SSAO), 0.6 nM.

`CC(=O)Nc1nc(COc2ccc(CCOC(=O)NN)cc2)cs1` [Production Example 7, 2-(4-{[2-(acetylamino)-1,3-thiazol-4-yl]methoxy}phenyl)ethyl hydrazinecarboxylate] came in with a melting point of 177 to 180 °C. In addition, the half-inhibitory concentration (IC50) in data set [1] was 57 nM. Also, at rat VAP-1 enzyme (SSAO), the midpoint of inhibition, the IC50, lay at 7.1 nM.

With `CC(=O)Nc1nc(C(=O)Oc2ccc(CCOC(=O)NN)cc2)cs1.Cl` [Production Example 8, 4-{2-[(hydrazinocarbonyl)oxy]ethyl}phenyl 2-(acetylamino)-1,3-thiazole-4-carboxylate hydrochloride], the melting point is 179 to 184 °C. The compound also gave an IC50 in data set [1] of 6.4 nM. Moreover, half-maximal inhibition at rat VAP-1 enzyme (SSAO) (IC50) was put at 1.7 nM.

`CC(=O)Nc1nc(C(=O)Nc2ccc(CCOC(=O)NN)cc2)cs1.Cl` [Production Example 9, 2-[4-({[2-(acetylamino)-1,3-thiazol-4-yl]carbonyl}amino)phenyl]ethyl hydrazinecarboxylate hydrochloride] yielded a melting point of 225 to 233 °C. This compound displayed an IC50 in data set [1] of 17.1 nM. Moreover, half-maximal inhibition on rat VAP-1 enzyme (SSAO) (IC50) was put at 1 nM.

Turning to `CC(=O)Nc1nc(CCc2ccc(COC(=O)NN)s2)cs1` [Production Example 13, {5-[2-(2-acetylamino-1,3-thiazol-4-yl)ethyl]thiophen-2-yl}methyl hydrazinecarboxylate hydrochloride], the half-maximal inhibitory concentration (IC50) in data set [1] was 3.4 nM; against rat VAP-1 enzyme (SSAO), 0.7 nM.

Turning to `CC(=O)Nc1nc(CCc2ccc(CCOC(=O)NN)s2)cs1` [Production Example 14, 2-(5-{2-[2-(acetylamino)-1,3-thiazol-4-yl]ethyl}thiophen-2-yl)ethyl hydrazinecarboxylate hydrochloride], the results for the IC50 (in data set [1]; on rat VAP-1 enzyme (SSAO)) were 5.1 nM and 5.3 nM, respectively.

On to `CC(=O)Nc1nc(CCc2ccc(CNC(=O)NN)c(F)c2F)cs1` [Production Example 22, N-(4-{2-[2-(acetylamino)-1,3-thiazol-4-yl]ethyl}-2,3-difluorobenzyl)hydrazinecarboxamide hydrochloride], for which the IC50 in data set [1] turned out to be 5.5 nM; against rat VAP-1 enzyme (SSAO), 2.2 nM.

For `CC(=O)Nc1nc(CNc2ccc(CNC(=O)NN)cc2)cs1` [Production Example 23, N-[4-({[2-(acetylamino)-1,3-thiazol-4-yl]methyl}amino)benzyl]hydrazinecarboxamide dihydrochloride], the half-inhibitory concentration (IC50) in data set [1] turned out to be 16.8 nM; on rat VAP-1 enzyme (SSAO) it was 8.4 nM.

With `CC(=O)Nc1nc(C(=O)Nc2ccc(CNC(=O)NN)cc2)cs1.Cl` [Production Example 24, 2-(acetylamino)-N-(4-{[hydrazinocarbonyl)amino]methyl}phenyl)-1,3-thiazole-4-carboxamide hydrochloride], the IC50 in data set [1] was 7.3 nM; against rat VAP-1 enzyme (SSAO), 1 nM.

For the compound `CC(=O)Nc1nc(C(=O)Nc2ccc(CNC(=O)NN)cc2)cs1.Cl` [Production Example 24], the melting point was in the range of 231 to 234 °C.

With `CC(=O)Nc1nc(COc2ccc(CCNC(=O)NN)cc2)cs1` [Production Example 25, N-[2-(4-{[2-(acetylamino)-1,3-thiazol-4-yl]methoxy}phenyl)ethyl]hydrazinecarboxamide trifluoroacetate], the IC50 turned out to be 48.5 nM in data set [1] and 1.5 nM on rat VAP-1 enzyme (SSAO).

For `CC(=O)Nc1nc(CCc2ccc(CSC(=O)NN)s2)cs1` [Production Example 36, S-[(5-{2-[2-(acetylamino)-1,3-thiazol-4-yl]ethyl}thiophen-2-yl)methyl]hydrazinecarbothioate hydrochloride], the half-inhibitory concentration (IC50) in data set [1] amounted to 2.3 nM; at rat VAP-1 enzyme (SSAO) it was 0.6 nM.
